The values below come from PMC6127270 (Frontiers in Pharmacology, 2018).

What is called EC50 is the concentration giving half of the maximal effect. Broadly, the ED50 is the dose at which the effect has come halfway, by size or by number of responders. High values mean a need for a large dose, low ones an effect at a small dose. As a reminder, the IC50 is the concentration needed to halve the response being measured. What is called Ki is the dissociation constant of the complex between target and ligand, obtained from inhibition or displacement.

The structures appear in SMILES notation. Where two headings read alike, the source gives them in different places.

The target of one series is T1, human DOR (Homo sapiens, UniProt P41143).
T1 construct: host or cells: CHO
Nature of the series: [35S]GTPγS binding, CHO-hDOR membranes. The series is classed as biochemical. The following applies: for [35S]GTPγS Binding DOR % stim.: relative to DPDPE. A general note: Binding of GTPγS marks nucleotide exchange on a G protein.

Series [1] has as its system CD-1 mice. Kind of series: Charcoal meal test (gastrointestinal transit). The note with it: mice; for Inhibition of gastrointestinal transit at highest tested dose: highest doses morphine 8000, 14-OMO 90, POMO […].
The nature of series [2]: Charcoal meal test (gastrointestinal transit). The note with it: male, CD-1, mouse, in vivo, sc.
Series [3] concerns mouse vas deferens (MVD) preparation. Further details: method as in Lattanzi et al., 2005. The following applies: values marked c (footnote not given); ref Lattanzi et al., 2005; read-out: Bioassay IC50 MVD; cited from earlier work.
The test system of series [4] is CD-1 mice. The following applies: s.c., hot-plate, values marked c (footnote not given), ref Lattanzi et al., 2005; cited from earlier work.
Series [5] concerns guinea-pig ileum (GPI) myenteric plexus-longitudinal muscle preparation. More on the design: method as in Lattanzi et al., 2005. The note with it: values marked c (footnote not given); ref Lattanzi et al., 2005; read-out: Bioassay IC50 GPI; cited from earlier work.
For another series, the target named is T2, human MOR (Homo sapiens, UniProt P35372).
T2 construct: host or cells: CHO
Kind of series: [35S]GTPγS binding, CHO-hMOR membranes. The series is classed as biochemical. The following applies: for [35S]GTPγS Binding MOR % stim.: relative to DAMGO.

For the next series, the target named is T3, human KOR (Homo sapiens, UniProt P41145).
T3 construct: host or cells: CHO
Kind of series: biochemical. In kind it is biochemical.

The test system of series [6] is guinea-pig ileum (GPI) myenteric plexus-longitudinal muscle preparation. The note with it: for IC50: read-out: Bioassay IC50 GPI, inhibition of electrically evoked twitch.
Series [7] relates to mouse vas deferens (MVD) preparation. The note with it: for IC50: read-out: Bioassay IC50 MVD, inhibition of electrically evoked twitch.
In series [8] the test system is guinea-pig ileum (GPI) myenteric plexus-longitudinal muscle preparation. Kind of series: tissue or blood. The note with it: Cavia porcellus, read-out: Bioassay IC50 GPI.
In another series the target is T4, DOR (Rattus norvegicus, UniProt P33533).
T4 construct: Membranes were prepared from Sprague–Dawley rat brains or guinea-pig brains; from tissue; host or cells: Sprague-Dawley rat brain
Nature of the series: Competition binding, [3H][Ile5,6]deltorphin II, rat brain membranes.

Series [9] has as its system CD-1 mice. Kind of series: Hot-plate assay (acute thermal nociception). The series is classed as in vivo, mouse. In general terms: Hot-plate and tail-flick tests time the reaction to a heat stimulus.
The subject of series [10] is mouse vas deferens (MVD) preparation. Nature of the series: tissue or blood. The note with it: read-out: Bioassay IC50 MVD.
The target of a further series is T5, KOR (Cavia porcellus, UniProt P41144).
T5 construct: Membranes were prepared from Sprague–Dawley rat brains or guinea-pig brains; from tissue; host or cells: guinea-pig brain
Nature of the series: Competition binding, [3H]U69,593, guinea-pig brain membranes.

For the next series, the target named is T6, MOR (Rattus norvegicus, UniProt P33535).
T6 construct: Membranes were prepared from Sprague–Dawley rat brains or guinea-pig brains; from tissue; host or cells: Sprague-Dawley rat brain
Nature of the series: Competition binding, [3H]DAMGO, rat brain membranes.

`CO[C@@]12CCC(=O)[C@@H]3Oc4c(O)ccc5c4[C@@]31CCN(C)[C@@H]2C5` [14-OMO, 14-O-methyloxymorphone, reference compound]: on human DOR, the EC50 turned out to be 43.8 ± 11.7 nM and the “[35S]GTPγS Binding DOR % stim.” value is 106 ± 1%. Moreover, the “Inhibition of gastrointestinal transit at highest tested dose” value (“Inhibition … at highest tested dose” below) in the series on CD-1 mice [1] (charcoal test, s.c.) was determined as 90%. For the same compound, the 50% effect level in [2] (ED50 at 30 min) was put at a dose of 0.037 µmol/kg. In series [3], the concentration for half-maximal inhibition (IC50) is 30.5 ± 5.5 nM. Further, the “Antinociceptive activity AD50 (95% CI)” value with CD-1 mice [4] is listed as 53 (48–58)^c μg/kg. Moreover, in series [5], the concentration for half-maximal inhibition (IC50) was 2 ± 0.3 nM. Moreover, at human MOR, the EC50 worked out at 1.62 ± 0.48 nM and the “[35S]GTPγS Binding MOR % stim.” value came to 97 ± 6%. In addition, at human KOR, it took 144 ± 32 nM to reach a half-maximal effect (EC50) and the “[35S]GTPγS Binding KOR % stim.” value came to 65 ± 7%.

With `C[C@@H](NC(=O)[C@@H](N)Cc1ccc(O)cc1)C(=O)NCC(=O)N(C)[C@@H](Cc1ccccc1)C(=O)NCCO` [DAMGO, [D-Ala^2,N-Me-Phe^4,Gly-ol^5]enkephalin, reference compound], at human MOR, the “[35S]GTPγS Binding MOR % stim.” value is 100%.

As to `CC(C)[C@H](NC(=O)[C@H](CC(=O)O)NC(=O)[C@H](Cc1ccccc1)NC(=O)[C@@H](C)NC(=O)[C@@H](N)Cc1ccc(O)cc1)C(=O)N[C@H](C(=O)NCC(N)=O)C(C)C` [Deltorphin I, deltorphin I, reference compound], the IC50 turned out to be 1240 ± 132 nM in series [6] and 0.19 ± 0.03 nM in [7].

Take `C[C@@H](NC(=O)[C@@H](N)Cc1ccc(O)cc1)C(=O)N[C@@H](Cc1ccccc1)C(=O)NCC(=O)N[C@@H](Cc1ccc(O)cc1)C(=O)N1CCC[C@H]1C(=O)N[C@@H](CO)C(N)=O` [Dermorphin, reference compound]: the IC50 was 1.3 ± 0.27 nM in [6] and 18 ± 0.31 nM in series [7].

With `CN1CC[C@]23c4c5ccc(O)c4O[C@H]2[C@@H](O)C=C[C@H]3[C@H]1C5` [Morphine, Morphine hydrocloride, reference compound], the “Inhibition … at highest tested dose” value in the series with CD-1 mice [1] (charcoal test, s.c.) is reported as “completely abolishing transit”. Further, the 50% effect level in series [2] (ED50 at 30 min) was put at a dose of 3.8 µmol/kg. In addition, the “Antinociceptive activity AD50 (95% CI)” value with CD-1 mice [4] is 6690 (4468–9348)^c μg/kg.

`CN1CC[C@]23c4c5ccc(O)c4O[C@H]2C(=O)CC[C@@]3(OCCCc2ccccc2)[C@H]1C5` [POMO, 14-O-phenylpropyloxymorphone]: the “Fold more potent than morphine as agonist in GPI” value in series [6] is on record as “over 250 fold”. In [7], the “Fold more potent than 14-OMO as agonist in MVD” value was found to be 1000 fold and the “Fold more potent than morphine as agonist in MVD” value is > 50,000 fold. Also, the 50% inhibitory concentration (IC50) in [8] came to 1.2 ± 0.21 nM. On DOR, this compound had a Ki of 0.13 ± 0.02 nM. Besides, the “Antagonism of antinociception by naloxone” value with CD-1 mice [9] (POMO 2 nmol/kg s.c., 20 min, naloxone 1 mg/kg s.c., -10 min) is “significantly antagonized”. Besides, the “Antagonism of antinociception by naltrindole” value in the series on CD-1 mice [9] (POMO 2 nmol/kg s.c., 20 min, naltrindole 3 mg/kg s.c., -10 min) is “did not antagonize”. The “Antagonism of antinociception by nor-BNI” value with CD-1 mice [9] (POMO 2 nmol/kg s.c., 20 min, nor-BNI 20 mg/kg s.c., -24 h) was “did not antagonize”. Moreover, in the series with CD-1 mice [9] (hot-plate, mice, s.c.), the “Fold increased antinociceptive potency than 14-OMO” value is “over 70 fold”, the “Fold increased antinociceptive potency than morphine” value was greater than 9000 fold and the “Time of peak antinociceptive response” value was determined as 20 min. Moreover, the “Fold increase in antinociceptive potency than oxymorphone” value in the series with CD-1 mice [9] (hot-plate, mice, s.c., oxymorphone value from Dumitrascuta et al., 2017) is given as greater than 1400 fold. The same compound had an AD50 hot-plate test with CD-1 mice [9] (mice, s.c.) of 0.7 nmol/kg. Moreover, the “Antinociceptive activity AD50 (95% CI)” value in the series with CD-1 mice [9] (mice, s.c., hot-plate, at peak of action) is 0.70 (0.63–0.77) μg/kg. Moreover, at human DOR, the concentration for a half-maximal effect (EC50) came out at 0.28 ± 0.14 nM and the “[35S]GTPγS Binding DOR % stim.” value came to 91 ± 8%. In addition, at human DOR ([35S]GTPγS binding), the “Agonist efficacy at DOR” value is given as “full efficacy” and the “Fold increase in potency (EC50) than 14-OMO at DOR” value is given as 151 fold. The IC50 in series [10] stood at 0.03 ± 0.0013 nM. The “Inhibition of gastrointestinal transit compared with 14-OMO and morphine” value in the series with CD-1 mice [1] (charcoal test) is given as “fourfold less inhibition”. Further, in the series with CD-1 mice [1] (charcoal test, s.c.), the “Inhibition … at highest tested dose” value is listed as 50%. In the series on CD-1 mice [1] (s.c.), the “Ratio ED50(constipation) vs. AD50(antinociception)” value is 2.43. The compound further yielded an ED50 at 30 min in [2] of 0.0017 µmol/kg. The compound also returned a Ki at KOR of 0.3 ± 0.01 nM. For the same compound, at human MOR, a half-maximal response (EC50) required 0.082 ± 0.017 nM and the “[35S]GTPγS Binding MOR % stim.” value is reported as 100 ± 8%. Also, at human MOR ([35S]GTPγS binding), the “Agonist efficacy at MOR” value was “full efficacy” and the “Fold increase in potency (EC50) than 14-OMO at MOR” value stood at 20 fold. At MOR, this compound had an inhibitory constant (Ki) of 0.073 ± 0.007 nM. Also, at MOR (ratio of Ki values), the “Selectivity DOR/MOR” value is 1.8 and the “Selectivity KOR/MOR” value is 4.1. Besides, on human KOR, the “Agonist efficacy at KOR” value is reported as “partial agonism”, the concentration giving a half-maximal response (EC50) is 0.38 ± 0.13 nM, the “Fold increase in potency (EC50) than 14-OMO at KOR” value was found to be 411 fold and the “[35S]GTPγS Binding KOR % stim.” value amounted to 39 ± 5%.
